Reference: patent EP4537835A1, “MIXTURE, COMPOSITIONS CONTAINING THAT MIXTURE AND USE THEREOF IN THE TREATMENT OF FEMAL INFERTILITY” (Nutra Futura S.r.l., priority 2023, dated 2025)

Tested on: CaCo-2 cells
Assay: Dose-response study of cell viability (MTT assay) on CaCo-2 cells
Format: cell-based, human
Settings: p<0.05 compared to the other tested doses
Experimental: The human intestinal epithelial cell line CaCo-2, purchased from the American Type Culture Collection (ATCC), was used as an experimental model to predict the characteristics of intestinal absorption following oral administration. This cell line was cultured in Dulbecco's Modified Eagle Medium/Nutrient F-12 Ham (DMEM-F12, Merck Life Science, Rome, Italy) containing 10% FBS (Merck Life Science, Rome, Italy), 2 mM of L-glutamine and 1% penicillin-streptomycin (Merck Life Science, Rome, Italy) and kept in an incubator at 37 °C and 5% CO2. The experiments were conducted using cells with a passage number comprised between 26 and 32 to maintain the correct properties of permeability and paracellular transport. The cells were seeded in various ways, including 1 × 10^4 cells in 96-well plates, in order to study cell viability and ROS production, synchronising the cells for 8 hours with DMEM without phenol red and supplemented with 0.5% FBS, 2 mM L-glutamine and 1% penicillin-streptomycin at 37 °C; 2 × 10^4 cells in Transwell® 6.5 mm plates (Corning® Costar®, Merck Life Science, Rome, Italy) with a polycarbonate membrane insert with 0.4 µm pores (Corning® Costar®, Merck Life Science, Rome, Italy) in a 24-well plate in order to perform the absorption analyses.
The analysis of cell viability was carried out with a classic technique based on the MTT in vitro toxicology assay kit (Merck Life Science, Rome, Italy), following the manufacturer's instructions. In fact, at the end of the treatment, the cells were incubated with 1% MTT dye for 2 hours in an incubator at 37 °C, 5% CO2 and 95% humidity; the purple formazan crystals were then dissolved in an equal volume of MTT solubilisation solution. Absorbance was analysed with a spectrophotometer (Infinite 200 Pro MPlex, Tecan, Männedorf, Switzerland) at 570 nm with correction at 690 nm, and the results were expressed versus the control ([…]), which represented the untreated cells. The results represent the percentage of viable cells versus the control, which makes it possible to understand whether the stimulation is safe or not.
With the aim of evaluating what the best concentration of each selected substance might be, and to prevent any cytotoxic effect, the viability of the CaCo-2 cells was analysed by means of the MTT assay.
• L. crispatus (10 mg/ml; 20 mg/ml; 30 mg/ml; 40 mg/ml; 50 mg/ml) • NAC (0.3 mM; 0.6 mM; 1 mM) • lycopene (0.1 µM; 0.2 µM; 0.5 µM) • vitamin D3 (10 nM; 100 nM) • folic acid (10 µM; 50 µM; 125 µM; 500 µM)
Therefore, these were maintained for all the subsequent experiments.

Compound | most effective concentration (cell viability) [µM]
CC(=O)N[C@@H](CS)C(=O)O [NAC, N-acetyl-L-cysteine] | 600
C=C1CC[C@H](O)C/C1=C/C=C1\CCC[C@]2(C)[C@@H]([C@H](C)CCCC(C)C)CC[C@@H]12 [Vitamin D, cholecalciferol] | 0.01
Nc1nc(=O)c2nc(CNc3ccc(C(=O)N[C@@H](CCC(=O)O)C(=O)O)cc3)cnc2[nH]1 [Folic acid, (S)-2-(4-((2-amino-4-hydroxypteridin-6-yl)-methylamino)benzamide)pentanedioic acid] | 50
CC(C)=CCC/C(C)=C/C=C/C(C)=C/C=C/C(C)=C/C=C/C=C(C)/C=C/C=C(C)/C=C/C=C(\C)CCC=C(C)C [Lycopene, (6E,8E,10E,12E,14E,16E,18E,20E,22E,24E,26E)-2,6,10,14,19,23,27,31-Octamethyl-dotriaconta-2,6,8,10,12,14,16,18,20,22,24,26,30-tridecane] | 0.2
